Earlier results on three compounds are cited in US20110033519A1, “Device with Aromatase Inhibitor for the Treatment and Prevention of Uterine Fibroids and Method of Use” (priority 2009, published 2011).

Data set [1] relates to fibroids. The conditions noted are these: three months.
Data set [2] relates to human sperm. The conditions noted are these: incubated in a solution of copper ions; after 120 minutes.

Like-named read-outs stand apart in the source and are kept apart here.

With `CC(C)(C#N)c1cc(Cn2cncn2)cc(C(C)(C)C#N)c1` [Anastrozole], the “reduction in fibroid volume” value in data set [1] (oral, 1 mg/day) is on record as 56%.

As to `N#Cc1ccc(C(c2ccc(C#N)cc2)n2cncn2)cc1` [Letrozole], the “reduction in fibroid volume” value is given as 45% in data set [1] (study of 35 women, 2.5 mg per day orally) and 47% in data set [1] (trial of 16 women, oral, 5 mg/day).

With copper ions, the human sperm immotile entry in data set [2] is on record as “Ninety-five”.
